The values that follow come from patent US20170152490A9, “USE OF ACTIVIN RECEPTOR-LIKE KINASE 1 (ALK-1) ANTAGONISTS IN THE TREATMENT OF CANCER” (Acceleron Pharma, Inc., priority 2014, published 2017).

Entries after “also recorded” stand apart in the source; their conditions may differ.

For data set [1] the following is noted: cited from earlier work; for typical maximum tolerated dose: body surface.
Data set [2] deals with RPMI2650 xenograft (Nasal Septum Carcinoma cells, ATCC# CCL-30). Nature of the data set: RPMI2650 head and neck carcinoma xenograft, tumor growth. Particulars: for TGI (tumor growth inhibition): day 30, after 3 weeks of dosing; for TGI (tumor growth inhibition) / GMDV (geo mean of final tumor volume/geo mean of initial tumor volume): ACE-041 10 mg/kg i.p. tiw, cisplatin 5 mg/kg i.v. qw; for GMDV (geo mean of final tumor volume/geo mean of initial tumor volume): day 30. The data set is classed as in vivo, Mus musculus (Hsd: Athymic Nude-Foxn1nu). How it is done: Tumor implantation. RPMI2650 (ATCC #CCL-30) were grown in Eagle's Minimum Essential Medium (ATCC Cat. No 30-2003), supplemented with fetal bovine serum (Gibco, Cat. No 26140) to a final concentration of 10%. Cell were harvested by mild trypsin digestion, washed in SFM and resuspended at a concentration of 50×10E6/ml in SFM. 0.1 ml (5×10E6 cells) of the cell suspension was injected subcutaneously in the right flank of a nude mouse.
Tumor measurement. Tumor size was measured manually using digital calipers. Tumor volume was calculated using the formula for a modified ellipse ((Length*Width2)/2).
Data Analysis. […] TGI was calculated according to the formula:
TGI=(GMDV(C)−GMDV(T))*100/(GMDV(C)−1), where GMDV=Geomean(final volumes)/Geomean(intitial volumes)

A short description of data set [3]: Animal body weight / tolerability in the RPMI2650 xenograft study. As to conditions: for Average changes in body weight: ACE-041 10 mg/kg i.p. tiw.
Protocol: Nasal Septum Carcinoma cells (RPMI2650, ATCC# CCL-30) were injected subcutaneously in the right flank (5×10E6 in 0.1 ml of SFM) of 8-week old female mice. Nine days following implantation animals were randomized into 4 groups based on tumor volume. Animal dosing and tumor measurement was done three times a week.
Data Analysis. Graphing and statistical analysis of the tumor volume and body weight data was done using GraphPad Prism 5 software (GraphPad Software Inc., La Jolla, Calif.). Unpaired two-tailed t-test (with or w/o Welch correction) was used to determine statistical significance.
Data set [4] deals with recurrent or metastatic squamous cell carcinoma of the head and neck (SCCHN). The data set is described as follows: Phase 2 study of Dalantercept in recurrent or metastatic SCCHN. The format is in vivo, human. How it is done:
Methods: 46 patients were enrolled and received Dalantercept SC Q3W at 80 mg (n=2), 0.6 mg/kg (n=13), and 1.2 mg/kg (n=31) until disease progression or unacceptable toxicity. Archived and optional biopsies and serum were collected for PD (pharmacodynamic) studies . The primary endpoint was response rate (RR) per RECIST 1.1 and secondary endpoints included progression free survival and overall survival. Key eligibility: recurrent or metastatic SCCHN of mucosal origin, >1 one prior platinum regimen, ECOG performance status ≦1, and no prior anti-angiogenic therapy.

In data set [5] the test system is advanced, refractory solid tumors including SCCHN. Nature of the data set: Phase 1 study of dalantercept in patients with advanced, refractory solid tumors. The format is in vivo, human. Particulars: patients incl. SCCHN.
The mark [6] stands for this setting: Day 9 (randomization, start of dosing), s.c. RPMI2650 xenograft, nude mice.
[7] abbreviates: Day 30, ACE-041 10 mg/kg i.p. tiw x3, cisplatin 5 mg/kg i.v. qw x3.
The mark [8] stands for this setting: day 30, cisplatin 5 mg/kg i.v. qw.

Take `N.N.O=C([O-])C1(C(=O)[O-])CCC1.[Pt+2]` [Carboplatin]: in data set [1], the “typical maximum tolerated dose” value is on record as 600-800 mg/m^2.

For the compound `N.N.[Cl][Pt][Cl]` [Cisplatin, cisplatin], in data set [2] (setting [6]), the “Tumor volume (geo mean)” value stood at 185.8 mm3. The “Tumor volume (geo mean)” value in data set [2] (setting [7]) was 1001 mm3. For the same compound, in data set [2], the “TGI (tumor growth inhibition)” value was 35% and the “GMDV (geo mean of final tumor volume/geo mean of initial tumor volume)” value worked out at 5.4. Besides, in data set [1], the “typical maximum tolerated dose” value is given as 60-100 mg/m^2. Moreover, in data set [1] (typical, most patients), the maximum tolerated dose result is on record as “about 5 mg/kg/day”. In addition, in data set [3] (setting [8]), the “Average changes in body weight” value is reported as −12.9% and the “cumulative body weight loss on average” value was approximately 13%. Moreover, the “body weight loss of some animals (as much as)” value in data set [3] (individual animals, triggered termination of the study) is on record as not above 20%.

On to `N.N.N.N.N.N.NCCCCCCN.NCCCCCCN.[Cl-].[Cl-].[Pt+2].[Pt+2].[Pt+2]` [Triplatin], for which, in data set [1], the “typical maximum tolerated dose” value is recorded as 0.9-1.1 mg/m^2.

For the compound “ACE-041: Soluble ALK1-IgG1 fusion protein (ALK1 extracellular domain-Fc), see SEQ ID NO: 3; ligand trap to BMP 9 and 10”, the “proportion of patients with stable disease (SD) >3 cycles” value is reported as 23% in data set [4] (0.6 mg/kg SC Q3W (n=3)) and 37% in data set [4] (1.2 mg/kg SC Q3W (n=10)). Also, the “patients achieving a partial response (PR), RECIST 1.1” value in data set [4] (1 patient at 1.2 mg/kg SC Q3W, 41 evaluable patients) was 2.4%. Moreover, the “frequency of grade >3 related AEs” value in data set [4] (46 patients enrolled, SC Q3W) amounted to 13%. Moreover, in data set [4] (grade 1-2), the “most common drug-related adverse events (in words)” value is “anemia, fatigue, peripheral edema, headache, hyponatremia, and pleural effusion”. Moreover, the “clinical activity (in words)” value in data set [5] (listed as Dalantercept) is recorded as “demonstrated activity in a subset of patients with SCCHN”; in data set [5] (listed as dalantercept), “signs of clinical activity; also recorded: stable disease”. The “Tumor volume (geo mean)” value came out at 181.4 mm3 in data set [2] (setting [6]) and 1024 mm3 in data set [2] (setting [7]). Further, the “TGI (tumor growth inhibition)” value in data set [2] is recorded as 32%. In addition, the “GMDV (geo mean of final tumor volume/geo mean of initial tumor volume)” value in data set [2] is given as 5.6. Further, in data set [3] (setting [8]), the “Average changes in body weight” value was found to be 9.1%. The “toxicity as monitored by changes in animal body weight (in words)” value in data set [3] (dosing period to day 30) was “did not show any sign of acute toxicity”.
